Tests used:
[1] = target: T1, human DGKα (Homo sapiens, UniProt P23743); assay: In vitro DGK inhibition assay, DGKα liposome (LIPGLO) assay; type: biochemical; details: read-out: Enzyme Inhibition DGKalpha IC50
T1 construct: TVMV protease cleavage site (C); Hexa-His (C); made in house; host or cells: Sf9 insect cells (baculovirus)
Protocol: (§1) The DGKα and DGKζ reactions were performed using either extruded liposome (DGKα and DGKζ LIPGLO assays) or detergent/lipid micelle substrate (DGKα and DGKζ assays). The reactions were carried out in 50 mM MOPS pH 7.5, 100 mM NaCl, 10 mM MgCl2, 1 μM CaCl2, and 1 mM DTT (assay buffer). The reactions using a detergent/lipid micelle substrate also contained 50 mM octyl B-D-glucopyranoside. The lipid substrate concentrations were 11 mM PS and 1 mM DAG for the detergent/lipid micelle reactions. The lipid substrate concentrations were 2 mM PS, 0.25 mM DAG, and 2.75 mM PC for the extruded liposome reactions (5 mM total lipid). The reactions were carried out in 150 μM ATP The enzyme concentrations for the DGKα and DGKζ were 5 nM
(§2) The compound inhibition studies were carried out as follows: 25 nL (ADPGLO assay) or 50 nL (LIPGLO assay) droplets of each test compound (top concentration 10 mM with 11 point, 3-fold dilution series for each compound) solubilized in DMSO were transferred to wells of a white 1536 well plate (Corning 3725). A 5 mL enzyme/lipid substrate solution at 2× final reaction concentration was prepared by combining 2.5 mL 4× enzyme solution (20 nM DGKα, or DGKζ (prepared as described below) in assay buffer) and 2.5 mL of either 4× liposome or 4× detergent/lipid micelle solution (compositions described below) and incubated at room temperature for 10 minutes. Next, 1 μL 2× enzyme/lipid substrate solution was added to wells containing the test compound and reactions were initiated with the addition of 1 μL 300 uM ATP. The reactions were allowed to proceed for 2 hr (ADPGLO assay) or 1 hr (LIPGLO assay), after which 2 μL Glo Reagent (Promega V9101) was added and incubated for 40 minutes. Next, 4 μL Kinase Detection Reagent was added and incubated for 30 minutes. Luminescence was recorded using an EnVision microplate reader. […] The compounds were evaluated at 11 concentrations to determine IC50.
(§3) The lipid composition was 5 mol % DAG (Avanti 8008110), 40 mol % PS (Avanti 840035P), and 55 mol % PC (Avanti 850457) at a total lipid concentration of 7-8 mg/mL for the liposome solution. The PC, DAG, and PS were dissolved in chloroform, combined, and dried in vacuo to a thin film. The lipids were hydrated to 20 mM in 50 mM MOPS pH 7.5, 100 mM NaCl, 5 mM MgCl2, and were freeze-thawed five times. The lipid suspension was extruded through a 100 nm polycarbonate filter 10-12 times. […] The liposome preparation was stored at 4° C. for as long as four weeks.
as §3, with “15.2” for “7-8”, “the 4×” for “the”, “eleven” for “10-12”
(§4) Human DGK-alpha-TVMV-His-pFBgate and human DGK-zeta-transcript variant-2-TVMV-His-pFBgate baculovirus samples were generated using the Bac-to-Bac baculovirus expression system (Invitrogen) according to the manufacturer's protocol. […] Baculovirus amplification was achieved using infected Sf9 cells at 1:1500 virus/cell ratios, and grown for 65 hours at 27° C. post-transfection.
(§5) The expression scale up for each protein was carried out in the Cellbag 50L WAVE-Bioreactor System 20/50 from GE Healthcare Bioscience. 12 L of 2×10^6 cells/mL Sf9 cells (Expression System, Davis, CA) grown in ESF921 insect medium (Expression System) were infected with virus stock at 1:200 virus/cell ratios, and grown for 66-68 hours at 27° C. post-infection.

[2] = target: T2, human DGKζ (Homo sapiens, UniProt Q13574); assay: In vitro DGK inhibition assay, DGKζ liposome (LIPGLO) assay; type: biochemical; details: read-out: Enzyme Inhibition DGKzeta IC50
T2 construct: TVMV protease cleavage site (C); Hexa-His (C); made in house; host or cells: Sf9 insect cells (baculovirus)
Protocol: as §1, §2, §3
as §3, with “15.2” for “7-8”, “the 4×” for “the”, “eleven” for “10-12”
as §4, §5

T1 sequence (P23743 with tags, fused parts or gaps): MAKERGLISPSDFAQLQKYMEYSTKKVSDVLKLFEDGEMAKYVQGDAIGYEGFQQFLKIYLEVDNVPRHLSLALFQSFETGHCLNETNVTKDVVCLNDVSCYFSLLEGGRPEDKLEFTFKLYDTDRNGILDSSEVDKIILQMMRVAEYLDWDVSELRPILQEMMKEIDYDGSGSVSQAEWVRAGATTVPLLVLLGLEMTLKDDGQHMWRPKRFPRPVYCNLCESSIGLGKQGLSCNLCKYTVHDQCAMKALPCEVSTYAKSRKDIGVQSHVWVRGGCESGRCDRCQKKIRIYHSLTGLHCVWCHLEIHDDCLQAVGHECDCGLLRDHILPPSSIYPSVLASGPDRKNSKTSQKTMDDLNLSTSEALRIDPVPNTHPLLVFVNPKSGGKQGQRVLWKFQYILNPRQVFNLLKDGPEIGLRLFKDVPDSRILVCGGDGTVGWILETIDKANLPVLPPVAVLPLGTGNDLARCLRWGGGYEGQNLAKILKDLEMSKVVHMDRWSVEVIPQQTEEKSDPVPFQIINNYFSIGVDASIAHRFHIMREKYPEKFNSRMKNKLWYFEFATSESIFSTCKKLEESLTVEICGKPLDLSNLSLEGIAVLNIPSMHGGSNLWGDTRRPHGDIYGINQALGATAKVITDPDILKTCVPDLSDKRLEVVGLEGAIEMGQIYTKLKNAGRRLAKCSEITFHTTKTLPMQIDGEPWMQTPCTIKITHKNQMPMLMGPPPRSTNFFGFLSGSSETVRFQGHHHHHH
T2 sequence (Q13574 with tags, fused parts or gaps isoform Q13574-4): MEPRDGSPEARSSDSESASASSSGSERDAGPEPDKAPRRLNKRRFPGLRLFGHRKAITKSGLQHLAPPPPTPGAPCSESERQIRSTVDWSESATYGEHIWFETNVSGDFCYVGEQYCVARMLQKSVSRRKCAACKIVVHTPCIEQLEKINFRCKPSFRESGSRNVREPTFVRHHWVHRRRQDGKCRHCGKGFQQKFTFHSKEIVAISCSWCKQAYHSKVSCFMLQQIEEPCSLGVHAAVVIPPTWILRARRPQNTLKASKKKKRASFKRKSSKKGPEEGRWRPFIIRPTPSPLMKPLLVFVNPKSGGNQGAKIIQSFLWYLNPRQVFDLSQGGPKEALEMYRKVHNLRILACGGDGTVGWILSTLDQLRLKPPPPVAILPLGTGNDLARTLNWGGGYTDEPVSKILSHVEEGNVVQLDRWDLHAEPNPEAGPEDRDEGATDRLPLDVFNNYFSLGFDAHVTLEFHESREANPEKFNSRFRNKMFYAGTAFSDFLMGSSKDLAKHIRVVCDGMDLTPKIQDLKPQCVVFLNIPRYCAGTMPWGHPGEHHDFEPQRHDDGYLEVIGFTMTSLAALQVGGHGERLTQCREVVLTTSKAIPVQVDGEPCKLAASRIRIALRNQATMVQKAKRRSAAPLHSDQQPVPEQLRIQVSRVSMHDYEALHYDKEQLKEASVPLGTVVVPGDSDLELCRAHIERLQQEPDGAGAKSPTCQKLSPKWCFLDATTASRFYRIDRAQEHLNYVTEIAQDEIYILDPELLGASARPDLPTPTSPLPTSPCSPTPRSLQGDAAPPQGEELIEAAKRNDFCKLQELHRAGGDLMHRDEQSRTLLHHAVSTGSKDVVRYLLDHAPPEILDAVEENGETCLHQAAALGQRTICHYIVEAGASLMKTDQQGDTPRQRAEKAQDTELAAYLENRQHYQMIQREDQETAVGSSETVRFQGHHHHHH

| SMILES | IC50 [1] | IC50 [2] |
| --- | --- | --- |
| Cn1c(=O)cc(N(CC2CC2)c2ccc(-c3cccc(CNS(C)(=O)=O)c3)cc2)c2nc(C#N)ccc21 [Example 85, N-((4′-((6-cyano-1-methyl-2-oxo-1,2-dihydro-1,5-naphthyridin-4-yl) (cyclopropylmethyl)amino)-[1,1′-biphenyl]-3-yl)methyl)methanesulfonamide] | 5.6 µM | 4 µM |
| COc1ccc(-c2cccc(N(C)c3cc(=O)n(C)c4ccc(C#N)nc34)c2)cc1 [Example 5, 8-((4′-methoxy-[1,1′-biphenyl]-3-yl)(methyl)amino)-5-methyl-6-oxo-5,6-dihydro-1,5-naphthyridine-2-carbonitrile] | 0.18 µM | 32 µM |
| COc1ccc(-c2ccc(N(CC3CC3)c3cc(=O)n(C)c4ccc(C#N)nc34)cc2)cc1 [Example 73, 8-((cyclopropylmethyl)(4′-methoxy-[1,1′-biphenyl]-4-yl)amino)-5-methyl-6-oxo-5,6-dihydro-1,5-naphthyridine-2-carbonitrile] | 5.3 µM | 2 µM |
| Cn1c(=O)cc(N(CC2CC2)c2ccc(-n3cccc3)cc2)c2nc(C#N)ccc21 [Example 54, 8-((4-(1H-pyrrol-1-yl)phenyl) (cyclopropylmethyl)amino)-5-methyl-6-oxo-5,6-dihydro-1,5-naphthyridine-2-carbonitrile] | 3.9 µM | 1.3 µM |
| CN(c1nc(=O)n(C)c2ccc(Cl)nc12)C1CCCCC1 [Example 30, 6-chloro-4-(cyclohexyl(methyl)amino)-1-methylpyrido[3,2-d]pyrimidin-2(1H)-one] | 0.14 µM | 73 µM |
| Cc1cccc(-c2cccc(N(CC3CC3)c3cc(=O)n(C)c4ccc(C#N)nc34)c2)c1 [Example 92, 8-((cyclopropylmethyl)(3′-methyl-[1,1′-biphenyl]-3-yl)amino)-5-methyl-6-oxo-5,6-dihydro-1,5-naphthyridine-2-carbonitrile] | 0.77 µM | 7.2 µM |
| Cn1c(=O)c(C#N)c(N(CC2CC2)c2ccc(C3CC3)cc2)c2ncccc21 [Example 60, 4-((cyclopropylmethyl)(4-cyclopropylphenyl)amino)-1-methyl-2-oxo-1,2-dihydro-1,5-naphthyridine-3-carbonitrile] | > 37 µM | 1.4 µM |
| CC1CCC(N(C)c2c(C#N)c(=O)n(C)c3ccc(Br)nc23)CC1 (centres unmarked) [Example 8, 6-bromo-1-methyl-4-(methyl(4-methylcyclohexyl)amino)-2-oxo-1,2-dihydro-1,5-naphthyridine-3-carbonitrile] |  | 31 µM |
| CCCN(CC1CC1)c1nc(=O)n(C)c2ccc(Cl)nc12 [Example 31, 6-chloro-4-((cyclopropylmethyl)(propyl)amino)-1-methylpyrido[3,2-d]pyrimidin-2(1H)-one] | 1 µM | 32 µM |
| COc1cc(N(CC2CC2)c2cc(=O)n(C)c3ccc(C#N)nc23)ccc1F [Example 55, 8-((cyclopropylmethyl)(4-fluoro-3-methoxyphenyl)amino)-5-methyl-6-oxo-5,6-dihydro-1,5-naphthyridine-2-carbonitrile] | 7.7 µM | 2.2 µM |
| Cn1c(=O)cc(N(CC2CC2)c2ccc(C(F)(F)F)cc2)c2nc(C#N)ccc21 [Example 42, 8-((cyclopropylmethyl)(4-(trifluoromethyl)phenyl)amino)-5-methyl-6-oxo-5,6-dihydro-1,5-naphthyridine-2-carbonitrile] | 4.4 µM | 1.1 µM |
| Cn1c(=O)cc(N(CC2CC2)c2ccc(-c3ccccc3O)cc2)c2nc(C#N)ccc21 [Example 80, 8-((cyclopropylmethyl)(2′-hydroxy-[1,1′-biphenyl]-4-yl)amino)-5-methyl-6-oxo-5,6-dihydro-1,5-naphthyridine-2-carbonitrile] | 6.3 µM | 1.3 µM |
| COc1cccc(-c2cccc(N(CC3CC3)c3cc(=O)n(C)c4ccc(C#N)nc34)c2)c1 [Example 95, 8-((cyclopropylmethyl)(3′-methoxy-[1,1′-biphenyl]-3-yl)amino)-5-methyl-6-oxo-5,6-dihydro-1,5-naphthyridine-2-carbonitrile] | 2 µM | 6.2 µM |
| Cc1ccc(N(C)c2cc(=O)n(C)c3ccc(C#N)nc23)cc1 [Example 20, 5-methyl-8-(methyl(p-tolyl)amino)-6-oxo-5,6-dihydro-1,5-naphthyridine-2-carbonitrile] | 0.73 µM | 36 µM |
| CC(C1CC1)N(C)c1c(C#N)c(=O)n(C)c2ccc(Br)nc12 (racemic) [Example 9, 6-bromo-4-((1-cyclopropylethyl)(methyl)amino)-1-methyl-2-oxo-1,2-dihydro-1,5-naphthyridine-3-carbonitrile] |  | 7.1 µM |
| Cc1ccc2c(n1)c(N(C)C(C)C1CC1)c(C#N)c(=O)n2C (centres unmarked) [Example 14, 4-[(1-cyclopropylethyl)(methyl)amino]-1,6-dimethyl-2-oxo-1,2-dihydro-1,5-naphthyridine-3-carbonitrile] |  | 29 µM |
| CN(c1cc(=O)n(C)c2ccc(C#N)nc12)C1CCCCC1 [Example 19, 8-(cyclohexyl(methyl)amino)-5-methyl-6-oxo-5,6-dihydro-1,5-naphthyridine-2-carbonitrile] |  | 12 µM |
| CN(c1c(C#N)c(=O)n(C)c2ccc(Br)nc12)C1CCCCC1 [Example 7, 6-bromo-4-[cyclohexyl(methyl)amino]-1-methyl-2-oxo-1,2-dihydro-1,5-naphthyridine-3-carbonitrile] |  | 21 µM |
| Cn1c(=O)cc(N(CC2CC2)c2ccc(C3CC3)cn2)c2nc(C#N)ccc21 [Example 46, 8-((cyclopropylmethyl)(5-cyclopropylpyridin-2-yl)amino)-5-methyl-6-oxo-5,6-dihydro-1,5-naphthyridine-2-carbonitrile] |  | 0.99 µM |
| CC(C1CC1)N(C)c1c(C#N)c(=O)n(C)c2ccc(C#N)nc12 (centres unmarked) [Example 11, 8-[(1-cyclopropylethyl)(methyl)amino]-5-methyl-6-oxo-5,6-dihydro-1,5-naphthyridine-2,7-dicarbonitrile] |  | 7.3 µM |
| CN(c1c(C#N)c(=O)n(C)c2ccc(C#N)nc12)C1CCCCC1 [Example 10, 8-[cyclohexyl(methyl)amino]-5-methyl-6-oxo-5,6-dihydro-1,5-naphthyridine-2,7-dicarbonitrile] |  | 4 µM |
| COc1ccc2c(n1)c(N(C)C1CCCCC1)c(C#N)c(=O)n2C [Example 12, 4-[cyclohexyl(methyl)amino]-6-methoxy-1-methyl-2-oxo-1,2-dihydro-1,5-naphthyridine-3-carbonitrile] |  | 84 µM |
| CN(c1cccc(C#N)c1)c1cc(=O)n(C)c2ccc(C#N)nc12 [Example 21, 8-((3-cyanophenyl)(methyl)amino)-5-methyl-6-oxo-5,6-dihydro-1,5-naphthyridine-2-carbonitrile] |  | > 125 µM |
| CC(C1CC1)N(C)c1c(C#N)c(=O)n(C)c2ccc(CC#N)nc12 (centres unmarked) [Example 15, 6-(cyanomethyl)-4-[(1-cyclopropylethyl)(methyl)amino]-1-methyl-2-oxo-1,2-dihydro-1,5-naphthyridine-3-carbonitrile] |  | 7.1 µM |
| C#CCn1c(=O)c(C#N)c(N(C)C2CCCCC2)c2nc(Br)ccc21 [Example 16, 6-bromo-4-[cyclohexyl(methyl)amino]-2-oxo-1-(prop-2-yn-1-yl)-1,2-dihydro-1,5-naphthyridine-3-carbonitrile] |  | 12 µM |
